The text below walks through data of PMC11237399, “Synergistic effects of sulopenem in combination with cefuroxime or durlobactam against Mycobacterium abscessus” (mBio, 2024).

Structures are written as SMILES.

Assay [1] deals with T1, Mycobacteroides abscessus subsp. abscessus Mab 686.
T1 construct: clinical isolate Mab686
The assay can be described thus: microbe, parasite or virus in culture. Also noted: species or system Mycobacterium abscessus clinical isolates; broth microdilution MIC in Middlebrook 7H9 with OADC and Tween 80, 30 C, 3-7 days, visible growth. The settings on record: single agent, read-out: MIC50 (μg/ml) Alone. As to the method: (§1) Minimum inhibitory concentrations (MICs) of sulopenem and CXM were determined using microdilution. Approximately 5 × 10^5 colony-forming units (CFU) per milliliter were inoculated into Middlebrook 7H9 broth supplemented with 10% (vol/vol) oleic albumin dextrose catalase (OADC) and 0.05% (vol/vol) Tween 80. When CXM is combined with sulopenem, the CXM is added at a fixed concentration of 4 µg/mL to serial dilutions of sulopenem. Isolates were incubated with test agents at 30°C for 3–7 days, and MIC was defined as the lowest antibiotic concentration that prevented visible bacterial growth. We use active moiety compounds, like cefuroxime salt, and not cefuroxime axetil. The 54 clinical isolates analyzed in this study were obtained from deidentified patients. To ensure consistency and reliability, we specifically selected isolates from our well-characterized whole genome-sequenced clinical isolates belonging to the Mycobacterium abscessus subspecies abscessus. Of these, 34 isolates were sourced from National Jewish Health, whereas 11 and 9 isolates were obtained from University Hospitals Cleveland Medical Center and Cleveland Metrohealth, respectively. Additionally, ATCC 19977 was acquired from the American Type Culture Collection (ATCC). The active ingredient cefuroxime (CXM) salts and avibactam (AVI) were purchased from AchemBlock, sulopenem was sourced from Iterum Therapeutics, and durlobactam (DUR) was provided from Entasis Therapeutics. All β-lactams and BLIs were prepared in sterile, distilled water or in broth and filter-sterilized with a 0.22 µm PES syringe filter.

Assay [2] deals with T2, Mycobacteroides abscessus subsp. abscessus Mab 122.
T2 construct: clinical isolate Mab122
The assay can be described thus: microbe, parasite or virus in culture. Also noted: species or system Mycobacterium abscessus clinical isolates; broth microdilution MIC in Middlebrook 7H9 with OADC and Tween 80, 30 C, 3-7 days, visible growth. The settings on record: single agent, read-out: MIC50 (μg/ml) Alone. As to the method:
as §1

Another assay has as its target T3, LdtMab2 (Mycobacteroides abscessus, UniProt B1MMQ4).
T3 construct: gene MAB_1530; truncated (delta 1-41), pET28a(+), E. coli BL2 (DE3), His tag cut by TEV
T3 sequence (B1MMQ4 42-406): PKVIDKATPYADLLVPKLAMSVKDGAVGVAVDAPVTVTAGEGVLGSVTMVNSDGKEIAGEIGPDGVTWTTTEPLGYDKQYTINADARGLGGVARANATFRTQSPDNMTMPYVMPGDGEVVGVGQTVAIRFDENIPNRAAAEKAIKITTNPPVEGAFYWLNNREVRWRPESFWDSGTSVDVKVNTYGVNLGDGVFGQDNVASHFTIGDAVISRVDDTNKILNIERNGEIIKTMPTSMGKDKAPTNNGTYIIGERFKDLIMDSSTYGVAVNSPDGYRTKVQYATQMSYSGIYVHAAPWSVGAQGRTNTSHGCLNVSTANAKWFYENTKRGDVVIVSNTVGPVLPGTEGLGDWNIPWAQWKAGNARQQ
The assay is described as follows: intact-protein UPLC-ESI-MS (Q-TOF). The assay is classed as binding. The settings on record: covalent; 1:20 enzyme:ligand, 50 mM Tris-HCl pH 7.5, 300 mM NaCl, room temperature.

A further assay deals with T4, PBP B (Mycobacteroides abscessus, UniProt B1MP31).
T4 construct: gene MAB_2000; truncated (delta 1-41), pET28a(+), E. coli BL2 (DE3), His tag cut by TEV
T4 sequence (B1MP31 42-642): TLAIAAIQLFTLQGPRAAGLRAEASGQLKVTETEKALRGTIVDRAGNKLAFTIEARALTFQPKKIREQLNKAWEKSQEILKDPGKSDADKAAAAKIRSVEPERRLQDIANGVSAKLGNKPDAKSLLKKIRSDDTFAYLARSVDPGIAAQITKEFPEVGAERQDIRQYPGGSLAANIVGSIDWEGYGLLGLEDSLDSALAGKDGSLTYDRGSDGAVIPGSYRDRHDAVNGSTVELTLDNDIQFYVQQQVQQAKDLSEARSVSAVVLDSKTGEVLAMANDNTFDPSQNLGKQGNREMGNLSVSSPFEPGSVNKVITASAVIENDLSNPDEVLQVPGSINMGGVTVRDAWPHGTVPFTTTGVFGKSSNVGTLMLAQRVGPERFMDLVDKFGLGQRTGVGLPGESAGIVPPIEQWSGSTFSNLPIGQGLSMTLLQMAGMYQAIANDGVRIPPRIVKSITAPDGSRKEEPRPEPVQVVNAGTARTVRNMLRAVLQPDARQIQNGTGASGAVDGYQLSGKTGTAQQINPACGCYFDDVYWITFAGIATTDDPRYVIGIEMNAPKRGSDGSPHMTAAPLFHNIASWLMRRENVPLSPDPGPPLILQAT
The assay can be described thus: intact-protein UPLC-ESI-MS (Q-TOF). The assay is classed as binding. The settings on record: covalent; 1:20 enzyme:ligand, 50 mM Tris-HCl pH 7.5, 300 mM NaCl, room temperature.

Regarding `NC(=O)[C@@H]1CC[C@@H]2CN1C(=O)N2OS(=O)(=O)O` [avibactam], the MIC50 in assay [1] and in assay [2] was above 128 µg/mL each time.
Take `CO/N=C(\C(=O)N[C@@H]1C(=O)N2C(C(=O)O)=C(COC(N)=O)CS[C@H]12)c1ccco1` [cefuroxime]: the “intact-protein UPLC-ESI-MS (Q-TOF)” value on LdtMab2 was “CXM engaged solely with LdtMab2 and PBP B”; at PBP B, “CXM engaged solely with LdtMab2 and PBP B”. The values for the MIC50 in assay [1] and in assay [2] were 8 µg/mL and 4 µg/mL, respectively.
Consider `C[C@@H](O)[C@H]1C(=O)N2C(C(=O)O)=C(S[C@H]3CC[S@@+]([O-])C3)S[C@H]12` [sulopenem], for which the MIC50 turned out to be 2 µg/mL in assay [1] and 0.5 µg/mL in assay [2].
